Test results taken from PubChem BioAssay AID504703 (Southern Research Specialized Biocontainment Screening …, 2011).
Values joined by “and” are separate entries in the source; they are usually repeats but may differ in a detail not shown here. Equal values may be shown once. Active and inactive are the calls of the source. How the calls were made is not given here.

Tested on: M. tuberculosis H37Rv growth inhibition with meropenem
Experiment: H37Rv growth inhibition with and without meropenem, dose response, set 2 (AID 504703);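 further: growth ran 7 days at 37 °C then overnight with Alamar Blue before reading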
[1] = M. tuberculosis H37Rv growth inhibition, measured here: IC50 without meropenem
[2] = M. tuberculosis H37Rv growth inhibition, measured here: IC90 without meropenem
[3] = measured here: IC90 with meropenem

With O=C(COc1ccc2ccccc2c1)Nc1nc2ccccc2[nH]1 the IC50 was > 18.8 µM (inactive) and 8.87 µM (inactive), the IC50 [1] was > 18.8 µM and 15.5 µM and the IC90 [2] was greater than 25 µM. It also gave an IC90 [3] greater than 25 µM.

N/C(=N\c1nc2ccccc2o1)NC(=O)c1ccc(F)cc1 was tested, and the IC50 was 9.64 µM (inactive), the IC50 [1] was 21.6 µM and the IC90 [2] was greater than 25 µM. The IC90 [3] was greater than 25 µM.

With CCOc1ccc2nc(NC(=O)C(C)Oc3ccccc3F)sc2c1 (centres undefined) the IC50 [1] was greater than 25 µM and the IC90 [2] was greater than 25 µM.

Molecule COc1ccc2[nH]c(C)cc2c1 has an IC50 [1] greater than 25 µM and an IC90 [2] greater than 25 µM.

CC(Oc1ccccc1)C(=O)Nc1nc2ccc(S(C)(=O)=O)cc2s1 (centres undefined) was tested, and the IC50 [1] was greater than 25 µM and the IC90 [2] was greater than 25 µM.

With N/C(=N\c1nc2ccccc2o1)NC(=O)c1ccccc1 the IC50 [1] was greater than 25 µM and the IC90 [2] was greater than 25 µM.

With Cc1ccccc1OCC(=O)Nc1ncn[nH]1 the IC50 [1] was greater than 25 µM and the IC90 [2] was greater than 25 µM.

In the case of Cc1ccc(OCC(=O)Nc2cccc3ncccc23)c(C)c1, the IC50 [1] is reported as greater than 25 µM and the IC90 [2] is reported as greater than 25 µM.

In the case of Cc1cc(C)c(OCC(=O)Nc2nc3ccccc3[nH]2)c(C)c1, the IC50 is reported as 5.55 µM (inactive), the IC50 [1] is reported as > 18.8 µM and 7.46 µM and the IC90 [2] is reported as greater than 25 µM. It also gave an IC90 [3] greater than 25 µM.

In the case of c1ccc(-c2cc(N3CCOCC3)nc3ccccc23)cc1, the IC50 is reported as 10 µM (inactive), the IC50 [1] is reported as greater than 25 µM and the IC90 [2] is reported as greater than 25 µM. For the same molecule, the IC90 [3] was greater than 18.8 µM.

Cc1ccccc1OCC(=O)Nc1noc(-c2ccccc2)n1 was tested, and the IC50 [1] was greater than 25 µM and the IC90 [2] was greater than 25 µM.

CCOc1ccc2[nH]ccc2c1 gave an IC50 [1] greater than 25 µM and an IC90 [2] greater than 25 µM.

For COc1ccccc1C(=O)N/C(N)=N/c1nc2ccccc2o1, the IC50 [1] was greater than 25 µM and the IC90 [2] was greater than 25 µM.

With O=C(COC(=O)C1=COCCO1)Nc1ccc2c(c1)OCO2 the IC50 [1] was greater than 25 µM, the IC90 [2] was greater than 25 µM and the IC90 [3] was greater than 25 µM.

CC(Oc1ccc(Cl)cc1)C(=O)Nc1nc2ccccc2s1 (centres undefined) was tested, and the IC50 [1] was greater than 25 µM and the IC90 [2] was greater than 25 µM.
